# Source: ChEMBL document CHEMBL1131152, “In vitro and in vivo activities of oligodeoxynucleotide-based thrombin inhibitors containing neutral formacetal linkages” (J Med Chem, 1998)
# Target: Prothrombin (Homo sapiens) (UniProt P00734)
# Assay: Relative prothrombin time was determined as the activity of the test ODN (oligodeoxynucleotide) relative to that of GS-522
row,Compound,Relative PT
1,Cc1cn([C@H]2C[C@H](OCOC[C@H]3O[C@@H](n4cc(C)c(=O)[nH]c4=O)C[C@@H]3OP(=O)(O)OC[C@H]3O[C@@H](n4cnc5c(=O)nc(N)[nH]c54)C[C@@H]3OP(=O)(O)OC[C@H]3O[C@@H](n4cnc5c(=O)[nH]c(=N)[nH]c54)C[C@@H]3OP(=O)(O)OC[C@H]3O[C@@H](n4cc(C)c(=O)[nH]c4=O)C[C@@H]3OCOC[C@H]3O[C@@H](n4cnc5c(=O)[nH]c(=N)[nH]c54)C[C@@H]3OP(=O)(O)OC[C@H]3O[C@@H](n4cc(C)c(=O)[nH]c4=O)C[C@@H]3OP(=O)(O)OC[C@H]3O[C@@H](n4cnc5c(=O)nc(N)[nH]c54)C[C@@H]3OP(=O)(O)OC[C@H]3O[C@@H](n4cnc5c(=O)[nH]c(=N)[nH]c54)C[C@@H]3OP(=O)(O)OC[C@H]3O[C@@H](n4cc(C)c(=O)[nH]c4=O)C[C@@H]3OCOC[C@H]3O[C@@H](n4cc(C)c(=O)[nH]c4=O)C[C@@H]3OP(=O)(O)OC[C@H]3O[C@@H](n4cnc5c(=O)[nH]c(=N)[nH]c54)C[C@@H]3OP(=O)(O)OC[C@H]3O[C@@H](n4cnc5c(=O)nc(N)[nH]c54)C[C@@H]3O)[C@@H](COP(=O)(O)O[C@H]3C[C@H](n4cnc5c(=O)nc(N)[nH]c54)O[C@@H]3COP(=O)(O)O[C@H]3C[C@H](n4cnc5c(=O)[nH]c(=N)[nH]c54)O[C@@H]3COP(=O)(O)O)O2)c(=O)[nH]c1=O,0.9
2,Cc1cn([C@H]2C[C@H](OCOC[C@H]3O[C@@H](n4cnc5c(=O)nc(N)[nH]c54)C[C@@H]3OP(=O)(O)OC[C@H]3O[C@@H](n4cnc5c(=O)[nH]c(=N)[nH]c54)C[C@@H]3OP(=O)(O)OC[C@H]3O[C@@H](n4cc(C)c(=O)[nH]c4=O)C[C@@H]3OCOC[C@H]3O[C@@H](n4cc(C)c(=O)[nH]c4=O)C[C@@H]3OP(=O)(O)OC[C@H]3O[C@@H](n4cnc5c(=O)[nH]c(=N)[nH]c54)C[C@@H]3OP(=O)(O)OC[C@H]3O[C@@H](n4cnc5c(=O)nc(N)[nH]c54)C[C@@H]3O)[C@@H](COP(=O)(O)O[C@H]3C[C@H](n4cnc5c(O)nc(=N)[nH]c54)O[C@@H]3COP(=O)(O)O[C@H]3C[C@H](n4cc(C)c(=O)[nH]c4=O)O[C@@H]3COP(=O)(O)O[C@H]3C[C@H](n4cnc5c(=O)[nH]c(=N)[nH]c54)O[C@@H]3COP(=O)(O)O[C@H]3C[C@H](n4cnc5c(=O)nc(N)[nH]c54)O[C@@H]3COP(=O)(O)O[C@H]3C[C@H](n4cc(C)c(=O)[nH]c4=O)O[C@@H]3COCO[C@H]3C[C@H](n4cc(C)c(=O)[nH]c4=O)O[C@@H]3COP(=O)(O)O[C@H]3C[C@H](n4cnc5c(=O)nc(N)[nH]c54)O[C@@H]3COP(=O)(O)O[C@H]3C[C@H](n4cnc5c(=O)[nH]c(=N)[nH]c54)O[C@@H]3COP(=O)(O)O)O2)c(=O)[nH]c1=O,1.1
3,Cc1cn([C@H]2C[C@H](OP(=O)(O)OC[C@H]3O[C@@H](n4cnc5c(=O)nc(N)[nH]c54)C[C@@H]3OP(=O)(O)OC[C@H]3O[C@@H](n4cnc5c(=O)[nH]c(=N)[nH]c54)C[C@@H]3OP(=O)(O)OC[C@H]3O[C@@H](n4cc(C)c(=O)[nH]c4=O)C[C@@H]3OP(=O)(O)OC[C@H]3O[C@@H](n4cnc5c(=O)nc(N)[nH]c54)C[C@@H]3OP(=O)(O)OC[C@H]3O[C@@H](n4cc(C)c(=O)[nH]c4=O)C[C@@H]3OP(=O)(O)OC[C@H]3O[C@@H](n4cnc5c(=O)nc(N)[nH]c54)C[C@@H]3OP(=O)(O)OC[C@H]3O[C@@H](n4cnc5c(=O)[nH]c(=N)[nH]c54)C[C@@H]3OP(=O)(O)OC[C@H]3O[C@@H](n4cc(C)c(=O)[nH]c4=O)C[C@@H]3OP(=O)(O)OC[C@H]3O[C@@H](n4cc(C)c(=O)[nH]c4=O)C[C@@H]3OP(=O)(O)OC[C@H]3O[C@@H](n4cnc5c(=O)[nH]c(=N)[nH]c54)C[C@@H]3OCOC[C@H]3O[C@@H](n4cnc5c(=O)nc(N)[nH]c54)C[C@@H]3O)[C@@H](COP(=O)(O)O[C@H]3C[C@H](n4cc(C)c(=O)[nH]c4=O)O[C@@H]3COP(=O)(O)O[C@H]3C[C@H](n4cnc5c(=O)[nH]c(=N)[nH]c54)O[C@@H]3COP(=O)(O)O[C@H]3C[C@H](n4cnc5c(=O)nc(N)[nH]c54)O[C@@H]3COP(=O)(O)O)O2)c(=O)[nH]c1=O,0.8
4,Cc1cn([C@H]2C[C@H](OP(=O)(O)OC[C@H]3O[C@@H](n4cc(C)c(=O)[nH]c4=O)C[C@@H]3OP(=O)(O)OC[C@H]3O[C@@H](n4cnc5c(=O)[nH]c(=N)[nH]c54)C[C@@H]3OP(=O)(O)OC[C@H]3O[C@@H](n4cnc5c(=O)nc(N)[nH]c54)C[C@@H]3O)[C@@H](COCO[C@H]3C[C@H](n4cnc5c(=O)[nH]c(=N)[nH]c54)O[C@@H]3COP(=O)(O)O[C@H]3C[C@H](n4cnc5c(=O)nc(N)[nH]c54)O[C@@H]3COP(=O)(O)O[C@H]3C[C@H](n4cc(C)c(=O)[nH]c4=O)O[C@@H]3COP(=O)(O)O[C@H]3C[C@H](n4cnc5c(=O)nc(N)[nH]c54)O[C@@H]3COP(=O)(O)O[C@H]3C[C@H](n4cc(C)c(=O)[nH]c4=O)O[C@@H]3COP(=O)(O)O[C@H]3C[C@H](n4cnc5c(=O)[nH]c(=N)[nH]c54)O[C@@H]3COP(=O)(O)O[C@H]3C[C@H](n4cnc5c(=O)nc(N)[nH]c54)O[C@@H]3COP(=O)(O)O[C@H]3C[C@H](n4cc(C)c(=O)[nH]c4=O)O[C@@H]3COP(=O)(O)O[C@H]3C[C@H](n4cc(C)c(=O)[nH]c4=O)O[C@@H]3COP(=O)(O)O[C@H]3C[C@H](n4cnc5c(=O)[nH]c(=N)[nH]c54)O[C@@H]3COP(=O)(O)O[C@H]3C[C@H](n4cnc5c(=O)nc(N)[nH]c54)O[C@@H]3COP(=O)(O)O)O2)c(=O)[nH]c1=O,0.8
5,Cc1cn([C@H]2C[C@H](OCOC[C@H]3O[C@@H](n4cnc5c(=O)nc(N)[nH]c54)C[C@@H]3OP(=O)(O)OC[C@H]3O[C@@H](n4cnc5c(=O)[nH]c(=N)[nH]c54)C[C@@H]3OP(=O)(O)OC[C@H]3O[C@@H](n4cc(C)c(=O)[nH]c4=O)C[C@@H]3OCOC[C@H]3O[C@@H](n4cc(C)c(=O)[nH]c4=O)C[C@@H]3OP(=O)(O)OC[C@H]3O[C@@H](n4cnc5c(=O)[nH]c(=N)[nH]c54)C[C@@H]3OP(=O)(O)OC[C@H]3O[C@@H](n4cnc5c(=O)nc(N)[nH]c54)C[C@@H]3O)[C@@H](COP(=O)(O)O[C@H]3C[C@H](n4cnc5c(=O)nc(N)[nH]c54)O[C@@H]3COCO[C@H]3C[C@H](n4cc(C)c(=O)[nH]c4=O)O[C@@H]3COP(=O)(O)O[C@H]3C[C@H](n4cnc5c(=O)[nH]c(=N)[nH]c54)O[C@@H]3COP(=O)(O)O[C@H]3C[C@H](n4cnc5c(=O)nc(N)[nH]c54)O[C@@H]3COP(=O)(O)O[C@H]3C[C@H](n4cc(C)c(=O)[nH]c4=O)O[C@@H]3COCO[C@H]3C[C@H](n4cc(C)c(=O)[nH]c4=O)O[C@@H]3COP(=O)(O)O[C@H]3C[C@H](n4cnc5c(=O)[nH]c(=N)[nH]c54)O[C@@H]3COP(=O)(O)O[C@H]3C[C@H](n4cnc5c(=O)nc(N)[nH]c54)O[C@@H]3COP(=O)(O)O)O2)c(=O)[nH]c1=O,0.5
